Assay results from PubChem BioAssay (NCI).
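Cultured in 96-well plates, cells were exposed to test compound for 48 hours across five concentrations. Abbreviation: GI50, concentration required for 50% inhibition of growth. Definition used: TGI = concentration required for complete inhibition of growth.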

Assays:
Experiment in all cases: NCI-60 cell line screen, 48 h
UO-31 renal = system: UO-31 renal
ACHN renal = system: ACHN renal
HOP-92 NSCLC = system: HOP-92 NSCLC
T-47D breast = system: T-47D breast
K-562 leukemia = system: K-562 leukemia
OVCAR-8 ovarian = system: OVCAR-8 ovarian
MOLT-4 leukemia = system: MOLT-4 leukemia
RPMI-8226 leukemia = system: RPMI-8226 leukemia
KM12 colon = system: KM12 colon
OVCAR-5 ovarian = system: OVCAR-5 ovarian
COLO 205 colon = system: COLO 205 colon
HL-60(TB) leukemia = system: HL-60(TB) leukemia
UACC-257 melanoma = system: UACC-257 melanoma
U251 CNS = system: U251 CNS
SN12C renal = system: SN12C renal
LOX IMVI melanoma = system: LOX IMVI melanoma
HT29 colon = system: HT29 colon
SW-620 colon = system: SW-620 colon
SF-268 CNS = system: SF-268 CNS
786-0 renal = system: 786-0 renal
NCI-H460 lung = system: NCI-H460 lung
SK-OV-3 ovarian = system: SK-OV-3 ovarian
DU-145 prostate = system: DU-145 prostate
SF-539 CNS = system: SF-539 CNS
SR leukemia = system: SR leukemia
EKVX NSCLC = system: EKVX NSCLC
OVCAR-3 ovarian = system: OVCAR-3 ovarian
SK-MEL-2 melanoma = system: SK-MEL-2 melanoma
PC-3 prostate = system: PC-3 prostate
SF-295 CNS = system: SF-295 CNS
NCI-H23 lung = system: NCI-H23 lung
OVCAR-4 ovarian = system: OVCAR-4 ovarian
M14 melanoma = system: M14 melanoma
HS 578T breast = system: HS 578T breast
RXF 393 renal = system: RXF 393 renal
SK-MEL-28 melanoma = system: SK-MEL-28 melanoma
NCI-H522 lung = system: NCI-H522 lung
MDA-MB-435 = system: MDA-MB-435
BT-549 breast = system: BT-549 breast
CAKI-1 renal = system: CAKI-1 renal
HCT-15 colon = system: HCT-15 colon
IGROV1 ovarian = system: IGROV1 ovarian
NCI-H226 lung = system: NCI-H226 lung
SNB-75 CNS = system: SNB-75 CNS
UACC-62 melanoma = system: UACC-62 melanoma
SK-MEL-5 melanoma = system: SK-MEL-5 melanoma
MCF7 breast = system: MCF7 breast
NCI/ADR-RES ovarian = system: NCI/ADR-RES ovarian
TK-10 renal = system: TK-10 renal
HCT-116 colon = system: HCT-116 colon
A549 NSCLC = system: A549 NSCLC
HOP-62 NSCLC = system: HOP-62 NSCLC
SNB-19 CNS = system: SNB-19 CNS

CCOC(=O)[C@H]1O[C@@H]1C(=O)N[C@@H](CC(C)C)C(=O)NCCc1ccc(O)cc1
GI50 (UO-31 renal): > 100 µM
TGI (UO-31 renal): > 100 µM
GI50 (ACHN renal): > 100 µM
TGI (ACHN renal): > 100 µM
GI50 (HOP-92 NSCLC): > 100 µM
TGI (HOP-92 NSCLC): > 100 µM
GI50 (T-47D breast): > 100 µM
TGI (T-47D breast): > 100 µM
GI50 (K-562 leukemia): 48.4 µM
TGI (K-562 leukemia): > 100 µM
GI50 (OVCAR-8 ovarian): > 100 µM
TGI (OVCAR-8 ovarian): > 100 µM
GI50 (MOLT-4 leukemia): > 100 µM
TGI (MOLT-4 leukemia): > 100 µM
GI50 (RPMI-8226 leukemia): > 100 µM
TGI (RPMI-8226 leukemia): > 100 µM
GI50 (KM12 colon): > 100 µM
TGI (KM12 colon): > 100 µM
GI50 (OVCAR-5 ovarian): > 100 µM
TGI (OVCAR-5 ovarian): > 100 µM
GI50 (COLO 205 colon): > 100 µM
TGI (COLO 205 colon): > 100 µM
GI50 (HL-60(TB) leukemia): > 100 µM
TGI (HL-60(TB) leukemia): > 100 µM
GI50 (UACC-257 melanoma): > 100 µM
TGI (UACC-257 melanoma): > 100 µM
GI50 (U251 CNS): > 100 µM
TGI (U251 CNS): > 100 µM
GI50 (SN12C renal): > 100 µM
TGI (SN12C renal): > 100 µM
GI50 (LOX IMVI melanoma): > 100 µM
TGI (LOX IMVI melanoma): > 100 µM
GI50 (HT29 colon): > 100 µM
TGI (HT29 colon): > 100 µM
GI50 (SW-620 colon): > 100 µM
TGI (SW-620 colon): > 100 µM
GI50 (SF-268 CNS): > 100 µM
TGI (SF-268 CNS): > 100 µM
GI50 (786-0 renal): > 100 µM
TGI (786-0 renal): > 100 µM
GI50 (NCI-H460 lung): > 100 µM
TGI (NCI-H460 lung): > 100 µM
GI50 (SK-OV-3 ovarian): > 100 µM
TGI (SK-OV-3 ovarian): > 100 µM
GI50 (DU-145 prostate): > 100 µM
TGI (DU-145 prostate): > 100 µM
GI50 (SF-539 CNS): > 100 µM
TGI (SF-539 CNS): > 100 µM
GI50 (SR leukemia): 41 µM
TGI (SR leukemia): > 100 µM
GI50 (EKVX NSCLC): > 100 µM
TGI (EKVX NSCLC): > 100 µM
GI50 (OVCAR-3 ovarian): > 100 µM
TGI (OVCAR-3 ovarian): > 100 µM
GI50 (SK-MEL-2 melanoma): > 100 µM
TGI (SK-MEL-2 melanoma): > 100 µM
GI50 (PC-3 prostate): > 100 µM
TGI (PC-3 prostate): > 100 µM
GI50 (SF-295 CNS): > 100 µM
TGI (SF-295 CNS): > 100 µM
GI50 (NCI-H23 lung): > 100 µM
TGI (NCI-H23 lung): > 100 µM
GI50 (OVCAR-4 ovarian): > 100 µM
TGI (OVCAR-4 ovarian): > 100 µM
GI50 (M14 melanoma): > 100 µM
TGI (M14 melanoma): > 100 µM
GI50 (HS 578T breast): > 100 µM
TGI (HS 578T breast): > 100 µM
GI50 (RXF 393 renal): > 100 µM
TGI (RXF 393 renal): > 100 µM
GI50 (SK-MEL-28 melanoma): > 100 µM
TGI (SK-MEL-28 melanoma): > 100 µM
GI50 (NCI-H522 lung): > 100 µM
TGI (NCI-H522 lung): > 100 µM
GI50 (MDA-MB-435): > 100 µM
TGI (MDA-MB-435): > 100 µM
GI50 (BT-549 breast): > 100 µM
TGI (BT-549 breast): > 100 µM
GI50 (CAKI-1 renal): > 100 µM
TGI (CAKI-1 renal): > 100 µM
GI50 (HCT-15 colon): > 100 µM
TGI (HCT-15 colon): > 100 µM
GI50 (IGROV1 ovarian): > 100 µM
TGI (IGROV1 ovarian): > 100 µM
GI50 (NCI-H226 lung): > 100 µM
TGI (NCI-H226 lung): > 100 µM
GI50 (SNB-75 CNS): > 100 µM
TGI (SNB-75 CNS): > 100 µM
GI50 (UACC-62 melanoma): > 100 µM
TGI (UACC-62 melanoma): > 100 µM
GI50 (SK-MEL-5 melanoma): > 100 µM
TGI (SK-MEL-5 melanoma): > 100 µM
GI50 (MCF7 breast): > 100 µM
TGI (MCF7 breast): > 100 µM
GI50 (NCI/ADR-RES ovarian): > 100 µM
TGI (NCI/ADR-RES ovarian): > 100 µM
GI50 (TK-10 renal): > 100 µM
TGI (TK-10 renal): > 100 µM
GI50 (HCT-116 colon): > 100 µM
TGI (HCT-116 colon): > 100 µM
GI50 (A549 NSCLC): > 100 µM
TGI (A549 NSCLC): > 100 µM
GI50 (HOP-62 NSCLC): > 100 µM
TGI (HOP-62 NSCLC): > 100 µM
GI50 (SNB-19 CNS): > 100 µM
TGI (SNB-19 CNS): > 100 µM
